Measurements reported in BindingDB's records for doi:10.1021/acs.jmedchem.9b00061 (Ajou University, 2019).
Where a SMILES comes first, the peptide text is derived from it. Bridges are numbered along the chain shown (N, C = ends).

Molecular target: Toll-like receptor 4 (Homo sapiens, UniProt O00206)
Assay: Binding affinity to recombinant human TLR4 assessed as dissociation constant up to 200 uM by surface plasmon resonance analysis

Toll-like receptor 4, sequence (O00206 whole entry): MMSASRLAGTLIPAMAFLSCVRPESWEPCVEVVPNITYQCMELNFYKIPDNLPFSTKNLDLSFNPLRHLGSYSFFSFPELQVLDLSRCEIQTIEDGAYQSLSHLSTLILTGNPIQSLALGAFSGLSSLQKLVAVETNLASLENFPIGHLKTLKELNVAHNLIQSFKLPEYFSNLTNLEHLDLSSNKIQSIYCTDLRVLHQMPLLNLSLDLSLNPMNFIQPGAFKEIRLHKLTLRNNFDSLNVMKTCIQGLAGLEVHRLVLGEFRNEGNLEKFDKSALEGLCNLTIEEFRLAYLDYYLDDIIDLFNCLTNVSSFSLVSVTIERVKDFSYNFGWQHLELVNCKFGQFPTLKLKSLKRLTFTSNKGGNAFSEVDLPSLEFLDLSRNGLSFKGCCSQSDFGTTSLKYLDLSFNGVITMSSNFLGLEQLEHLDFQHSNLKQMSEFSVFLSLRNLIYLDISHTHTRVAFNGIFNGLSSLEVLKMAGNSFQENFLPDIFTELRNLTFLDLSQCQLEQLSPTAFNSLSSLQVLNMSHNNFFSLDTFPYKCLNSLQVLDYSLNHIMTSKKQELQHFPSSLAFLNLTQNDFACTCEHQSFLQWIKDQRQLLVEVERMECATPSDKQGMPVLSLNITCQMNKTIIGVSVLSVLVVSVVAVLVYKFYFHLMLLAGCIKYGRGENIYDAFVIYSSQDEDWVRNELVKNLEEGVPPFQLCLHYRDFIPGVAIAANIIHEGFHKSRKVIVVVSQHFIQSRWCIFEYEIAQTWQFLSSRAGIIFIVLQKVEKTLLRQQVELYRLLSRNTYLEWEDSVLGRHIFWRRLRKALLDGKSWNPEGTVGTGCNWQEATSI

| Compound | Kd [nM] |
| --- | --- |
| CC[C@H](C)[C@@H]1NC(=O)[C@H](Cc2c[nH]c3ccccc23)NC(=O)[C@H](Cc2c[nH]c3ccccc23)NC(=O)[C@@H](NC(=O)[C@H](CO)NC(=O)[C@H](Cc2ccccc2)NC(=O)[C@@H](NC(=O)CNC(=O)[C@@H](N)CC(C)C)C(C)C)CC(=O)NCCCC[C@@H](C(=O)N[C@@H](CC(C)C)C(=O)N[C@H](C(=O)O)C(C)C)NC1=O (H-LGVFSDWWIKLV-OH; lactam 6-10) | 1.4 |
| H-LGVFSSWWIKLV-OH | 1.1 |
